# Laboratory results from PubChem BioAssay AID2060895 (Molecular Pharmacology Branch, DTP, NCI, 2025).
# Tested on: PDC 899932-113-R3-J6 complex spheroid viability
# Experiment: Anticancer human tumor 899932-113-R3-J6-PDC patient-derived melanoma cell line growth inhibition [RAS]
# Details: for IC50: curve of first compound; for viability, T/C: stronger effect = lower value
# How it was run: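 Tumour cells grown as complex spheroids with HUVEC endothelial cells and mesenchymal stem cells, treated with RAS pathway inhibitor combinations. Each agent spans half-log steps from near clinical Cmax, or 10 microM where Cmax is unknown.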
# [1] = second compound 0.00316 µM, first compound 0.0316 µM
# [2] = second compound 0.00316 µM, first compound 0.1 µM
# [3] = second compound 0.00316 µM, first compound 0.316 µM
# [4] = second compound 0.00316 µM, first compound 1 µM
# [5] = second compound 0.00316 µM, first compound 3.16 µM
# [6] = second compound 0.00316 µM, first compound 10 µM
# [7] = second compound 0.01 µM, first compound 0.0316 µM
# [8] = second compound 0.01 µM, first compound 0.1 µM
# [9] = second compound 0.01 µM, first compound 0.316 µM
# [10] = second compound 0.01 µM, first compound 1 µM
# [11] = second compound 0.01 µM, first compound 3.16 µM
# [12] = second compound 0.01 µM, first compound 10 µM
# [13] = second compound 0.0316 µM, first compound 0.0316 µM
# [14] = second compound 0.0316 µM, first compound 0.1 µM
# [15] = second compound 0.0316 µM, first compound 0.316 µM
# [16] = second compound 0.0316 µM, first compound 1 µM
# [17] = second compound 0.0316 µM, first compound 3.16 µM
# [18] = second compound 0.0316 µM, first compound 10 µM
# [19] = second compound 0.1 µM, first compound 0.0316 µM
# [20] = second compound 0.1 µM, first compound 0.1 µM
# [21] = second compound 0.1 µM, first compound 0.316 µM
# [22] = second compound 0.1 µM, first compound 1 µM
# [23] = second compound 0.1 µM, first compound 3.16 µM
# [24] = second compound 0.1 µM, first compound 10 µM
# [25] = second compound 0.316 µM, first compound 0.0316 µM
# [26] = second compound 0.316 µM, first compound 0.1 µM
# [27] = second compound 0.316 µM, first compound 0.316 µM
# [28] = second compound 0.316 µM, first compound 1 µM
# [29] = second compound 0.316 µM, first compound 3.16 µM
# [30] = second compound 0.316 µM, first compound 10 µM
# [31] = second compound 1 µM, first compound 0.0316 µM
# [32] = second compound 1 µM, first compound 0.1 µM
# [33] = second compound 1 µM, first compound 0.316 µM
# [34] = second compound 1 µM, first compound 1 µM
# [35] = second compound 1 µM, first compound 3.16 µM
# [36] = second compound 1 µM, first compound 10 µM
# 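Wherever viability, T/C is given: spheroids exposed to agents for seven days before readout; 100% = DMSO vehicle control wells.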
structure (smiles),measurement,setting,value
CC1(O)CCCC1n1c(=O)c(C(F)F)cc2cnc(NC3CCN(S(C)(=O)=O)CC3)nc21 (stereo unspecified) + C=CC(=O)N1CCN(c2nc(OCC3CCCN3C)nc3c(F)c(-c4nc(N)cc(C)c4C(F)(F)F)c(Cl)cc23)C(C)C1,IC50,second compound 0.00316 µM,1840 nM
same,IC50,second compound 0.01 µM,4020 nM
same,IC50,second compound 0.0316 µM,2480 nM
same,IC50,second compound 0.1 µM,1820 nM
same,IC50,second compound 0.316 µM,3290 nM
same,IC50,second compound 1 µM,3300 nM
same,"viability, T/C",[1],99%
same,"viability, T/C",[2],73.6%
same,"viability, T/C",[3],62%
same,"viability, T/C",[4],63.5%
same,"viability, T/C",[5],57.3%
same,"viability, T/C",[6],21.4%
same,"viability, T/C",[7],92%
same,"viability, T/C",[8],81.3%
same,"viability, T/C",[9],71.1%
same,"viability, T/C",[10],69.1%
same,"viability, T/C",[11],64.5%
same,"viability, T/C",[12],19.5%
same,"viability, T/C",[13],94%
same,"viability, T/C",[14],88.2%
same,"viability, T/C",[15],65.8%
same,"viability, T/C",[16],66.2%
same,"viability, T/C",[17],53.1%
same,"viability, T/C",[18],19.2%
same,"viability, T/C",[19],96.2%
same,"viability, T/C",[20],80.4%
same,"viability, T/C",[21],62.2%
same,"viability, T/C",[22],62.7%
same,"viability, T/C",[23],54.5%
same,"viability, T/C",[24],21.5%
same,"viability, T/C",[25],94.7%
same,"viability, T/C",[26],80.1%
same,"viability, T/C",[27],65%
same,"viability, T/C",[28],67.8%
same,"viability, T/C",[29],60%
same,"viability, T/C",[30],17.3%
same,"viability, T/C",[31],88.5%
same,"viability, T/C",[32],81.2%
same,"viability, T/C",[33],63.7%
same,"viability, T/C",[34],62%
same,"viability, T/C",[35],62%
same,"viability, T/C",[36],14%
CCN1CCN(Cc2ccc(Nc3ncc(F)c(-c4cc(F)c5nc(C)n(C(C)C)c5c4)n3)nc2)CC1 + C=CC(=O)N1CCN(c2nc(OCC3CCCN3C)nc3c(F)c(-c4nc(N)cc(C)c4C(F)(F)F)c(Cl)cc23)C(C)C1,IC50,second compound 0.00316 µM,414 nM
same,IC50,second compound 0.01 µM,457 nM
same,IC50,second compound 0.0316 µM,447 nM
same,IC50,second compound 0.1 µM,429 nM
same,IC50,second compound 0.316 µM,467 nM
same,IC50,second compound 1 µM,393 nM
same,"viability, T/C","second compound 0.00316 µM, first compound 0.00316 µM",102%
same,"viability, T/C","second compound 0.00316 µM, first compound 0.01 µM",92.3%
same,"viability, T/C",[1],88.7%
same,"viability, T/C",[2],78%
same,"viability, T/C",[3],62.2%
same,"viability, T/C",[4],18.8%
same,"viability, T/C","second compound 0.01 µM, first compound 0.00316 µM",99.9%
same,"viability, T/C","second compound 0.01 µM, first compound 0.01 µM",98.5%
same,"viability, T/C",[7],95.6%
same,"viability, T/C",[8],85.5%
same,"viability, T/C",[9],63%
same,"viability, T/C",[10],22.6%
same,"viability, T/C","second compound 0.0316 µM, first compound 0.00316 µM",98.4%
same,"viability, T/C","second compound 0.0316 µM, first compound 0.01 µM",101%
same,"viability, T/C",[13],103%
same,"viability, T/C",[14],89.5%
same,"viability, T/C",[15],63%
same,"viability, T/C",[16],20.6%
same,"viability, T/C","second compound 0.1 µM, first compound 0.00316 µM",109%
same,"viability, T/C","second compound 0.1 µM, first compound 0.01 µM",94%
same,"viability, T/C",[19],85.7%
same,"viability, T/C",[20],83%
same,"viability, T/C",[21],61.2%
same,"viability, T/C",[22],24%
same,"viability, T/C","second compound 0.316 µM, first compound 0.00316 µM",101%
same,"viability, T/C","second compound 0.316 µM, first compound 0.01 µM",106%
same,"viability, T/C",[25],90.5%
same,"viability, T/C",[26],81%
same,"viability, T/C",[27],65.9%
same,"viability, T/C",[28],23.9%
same,"viability, T/C","second compound 1 µM, first compound 0.00316 µM",107%
same,"viability, T/C","second compound 1 µM, first compound 0.01 µM",104%
same,"viability, T/C",[31],93%
same,"viability, T/C",[32],72.8%
same,"viability, T/C",[33],64.3%
same,"viability, T/C",[34],18%
C[C@@H](NC(=O)c1ncnc(N)c1Cl)c1ncc(C(=O)Nc2cc(C(F)(F)F)c(Cl)cn2)s1 + C=CC(=O)N1CCN(c2nc(OCC3CCCN3C)nc3c(F)c(-c4nc(N)cc(C)c4C(F)(F)F)c(Cl)cc23)C(C)C1,IC50,second compound 0.00316 µM,6950 nM
same,IC50,second compound 0.01 µM,7010 nM
same,IC50,second compound 0.0316 µM,7260 nM
same,IC50,second compound 0.1 µM,7390 nM
same,IC50,second compound 0.316 µM,7410 nM
same,IC50,second compound 1 µM,7600 nM
same,"viability, T/C",[1],131%
same,"viability, T/C",[2],152%
same,"viability, T/C",[3],169%
same,"viability, T/C",[4],164%
same,"viability, T/C",[5],103%
same,"viability, T/C",[6],25.8%
same,"viability, T/C",[7],140%
same,"viability, T/C",[8],153%
same,"viability, T/C",[9],153%
same,"viability, T/C",[10],154%
same,"viability, T/C",[11],106%
same,"viability, T/C",[12],25%
same,"viability, T/C",[13],121%
same,"viability, T/C",[14],143%
same,"viability, T/C",[15],157%
same,"viability, T/C",[16],154%
same,"viability, T/C",[17],104%
same,"viability, T/C",[18],29.1%
same,"viability, T/C",[19],142%
same,"viability, T/C",[20],152%
same,"viability, T/C",[21],153%
same,"viability, T/C",[22],160%
same,"viability, T/C",[23],115%
same,"viability, T/C",[24],26.9%
same,"viability, T/C",[25],136%
same,"viability, T/C",[26],136%
same,"viability, T/C",[27],168%
same,"viability, T/C",[28],161%
same,"viability, T/C",[29],108%
same,"viability, T/C",[30],29.3%
same,"viability, T/C",[31],124%
same,"viability, T/C",[32],144%
same,"viability, T/C",[33],149%
same,"viability, T/C",[34],151%
same,"viability, T/C",[35],114%
same,"viability, T/C",[36],29.9%
